Experimental data reported in ChEMBL document CHEMBL1157008, “Discovery of 2-{4-[(3S)-piperidin-3-yl]phenyl}-2H-indazole-7-carboxamide (MK-4827): a novel oral poly(ADP-ribose)polymerase (PARP) inhibitor efficacious in BRCA-1 and -2 mutant tumors” (J Med Chem, 2009).
pIC50: −log10 of the molar value. Activity calls are given as the source filed them. No cut-off for these calls is given here.

Legend:
[1] = Antiproliferative activity against HMEC after 6 to 7 days by cell titer-blue assay; conditions: human, HMEC cells
[2] = tested on: HeLa; test: Antiproliferative activity against BRCA1 deficient human HeLa cells after 7 days by cell titer-blue assay; type: functional; conditions: 168 h
[3] = tested on: HeLa; test: Antiproliferative activity against human HeLa cells expressing wild type BRCA1 after 7 days by cell titer-blue assay; type: functional; conditions: 168 h
[4] = Intrinsic clearance in rat liver microsomes assessed per mg of protein up to 90 mins; type: ADME, Microsome
[5] = Intrinsic clearance in mouse liver microsomes assessed per mg of protein up to 90 mins; type: ADME, Microsome
[6] = Plasma clearance in rat; type: ADME, organism-based
[7] = Oral bioavailability in rat; type: ADME, organism-based; conditions: in vivo
[8] = target: T1, Cytochrome P450 1A2 (Rattus norvegicus, UniProt P04799); test: (§1) Intrinsic clearance in rat liver microsomes assessed per mg of protein up to 60 mins in presence of rat recombinant CYP1A2; type: ADME, Microsome; conditions: microsomes, 1 h
T1 sequence (P04799 whole entry): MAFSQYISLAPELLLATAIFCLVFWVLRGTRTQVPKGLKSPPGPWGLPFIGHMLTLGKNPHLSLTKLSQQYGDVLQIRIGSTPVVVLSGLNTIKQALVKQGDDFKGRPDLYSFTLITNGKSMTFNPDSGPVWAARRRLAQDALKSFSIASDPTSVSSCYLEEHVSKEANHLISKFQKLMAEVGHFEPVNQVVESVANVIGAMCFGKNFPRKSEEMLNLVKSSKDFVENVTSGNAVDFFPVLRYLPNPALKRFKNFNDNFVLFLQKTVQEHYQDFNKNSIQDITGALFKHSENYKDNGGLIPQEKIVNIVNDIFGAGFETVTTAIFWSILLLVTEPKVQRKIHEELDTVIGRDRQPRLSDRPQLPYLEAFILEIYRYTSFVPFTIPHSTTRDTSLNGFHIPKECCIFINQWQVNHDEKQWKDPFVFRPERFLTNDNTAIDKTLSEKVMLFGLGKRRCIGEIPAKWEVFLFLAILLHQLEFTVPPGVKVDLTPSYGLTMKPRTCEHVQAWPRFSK

[9] = Antiproliferative activity against human PrEC cells after 6 to 7 days by cell titer-blue assay
[10] = tested on: MDA-MB-436; conditions: Homo sapiens, 100 mg/kg
Description: Antitumor activity against human MDA-MB-436 cells expressing BRCA1 5396 + 1G>A mutant xenografted in CD1 mouse assessed as tumor regression at 100 mg/kg, po qd for 33 days

[11] = tested on: MDA-MB-436; conditions: Homo sapiens, 50 mg/kg
Description: Antitumor activity against human MDA-MB-436 cells expressing BRCA1 5396 + 1G>A mutant xenografted in CD1 mouse assessed as tumor regression at 50 mg/kg, po bid for 33 days

[12] = target: T2, PARP 1, 2 and 3 (Homo sapiens, UniProt P09874+Q9Y6F1+Q9UGN5); conditions: HeLa
[13] = cells; conditions: Homo sapiens, MDA-MB-436, 144 h
Description: Antiproliferative activity against human MDA-MB-436 cells expressing BRCA1 5396 + 1G>A mutant after 6 days by cell titer-blue assay

[14] = tested on: CAPAN-1; test: cells; conditions: Homo sapiens, CAPAN-1, 312 h
Description: Antiproliferative activity against human Capan1 cells expressing BRCA2 6174delT mutation and loss of wild-type allele after 13 days by cell titer-blue assay

[15] = target: Poly [ADP-ribose] polymerase 1 (Homo sapiens, UniProt P09874); test: Inhibition of human PARP1 by SPA
[16] = target: T2, PARP 1, 2 and 3; test: Inhibition of PARP in hydrogen peroxide-induced human HeLa cells assessed as inhibition DNA-damage-induced PARylation; type: cell-based
[17] = tested on: HeLa; test: Selectivity index, ratio of CC50 for BRCA1 proficient human HeLa cells to CC50 for BRCA1 deficient human HeLa cells; type: functional
[18] = target: T3, CYP1A2 (Rattus norvegicus, UniProt P04799); test: as §1; type: ADME, Microsome; conditions: rat liver microsomes with rat recombinant CYP1A2
T3 sequence (P04799 whole entry): T1 sequence (P04799 whole entry)

[19] = Volume of distribution in rat; type: ADME, organism-based; conditions: in vivo
[20] = Terminal half life in rat; type: ADME, organism-based; conditions: in vivo, read-out: beta t1/2 (converted)
[21] = Solubility in phosphate buffer; type: physicochemical
[22] = Intrinsic clearance in rat lung microsomes assessed per mg of protein in presence of NADPH; type: ADME, Microsome
[23] = Biodistribution in iv dosed rat urine within 24 hrs; type: ADME, organism-based; conditions: in vivo
[24] = Biodistribution in iv dosed rat urine assessed as tert-butyl (3S)-3-{4-[7-(aminocarbonyl)-2H-indazol-2-yl]phenyl}piperidine-1-carboxylate level within 24 hrs; type: ADME, organism-based; conditions: in vivo
[25] = Metabolic stability in rat heart microsomes assessed as compound degradation in presence of NADPH; type: ADME
[26] = Intrinsic clearance in rat kidney microsomes assessed per mg of protein in presence of NADPH; type: ADME, Microsome
[27] = Intrinsic clearance in rat liver microsomes assessed per mg of protein in presence of NADPH; type: ADME, Microsome
[28] = Intrinsic clearance in rat intestine microsomes assessed per mg of protein in presence of NADPH; type: ADME, Microsome

Sequence of Poly [ADP-ribose] polymerase 1 (P09874 whole entry): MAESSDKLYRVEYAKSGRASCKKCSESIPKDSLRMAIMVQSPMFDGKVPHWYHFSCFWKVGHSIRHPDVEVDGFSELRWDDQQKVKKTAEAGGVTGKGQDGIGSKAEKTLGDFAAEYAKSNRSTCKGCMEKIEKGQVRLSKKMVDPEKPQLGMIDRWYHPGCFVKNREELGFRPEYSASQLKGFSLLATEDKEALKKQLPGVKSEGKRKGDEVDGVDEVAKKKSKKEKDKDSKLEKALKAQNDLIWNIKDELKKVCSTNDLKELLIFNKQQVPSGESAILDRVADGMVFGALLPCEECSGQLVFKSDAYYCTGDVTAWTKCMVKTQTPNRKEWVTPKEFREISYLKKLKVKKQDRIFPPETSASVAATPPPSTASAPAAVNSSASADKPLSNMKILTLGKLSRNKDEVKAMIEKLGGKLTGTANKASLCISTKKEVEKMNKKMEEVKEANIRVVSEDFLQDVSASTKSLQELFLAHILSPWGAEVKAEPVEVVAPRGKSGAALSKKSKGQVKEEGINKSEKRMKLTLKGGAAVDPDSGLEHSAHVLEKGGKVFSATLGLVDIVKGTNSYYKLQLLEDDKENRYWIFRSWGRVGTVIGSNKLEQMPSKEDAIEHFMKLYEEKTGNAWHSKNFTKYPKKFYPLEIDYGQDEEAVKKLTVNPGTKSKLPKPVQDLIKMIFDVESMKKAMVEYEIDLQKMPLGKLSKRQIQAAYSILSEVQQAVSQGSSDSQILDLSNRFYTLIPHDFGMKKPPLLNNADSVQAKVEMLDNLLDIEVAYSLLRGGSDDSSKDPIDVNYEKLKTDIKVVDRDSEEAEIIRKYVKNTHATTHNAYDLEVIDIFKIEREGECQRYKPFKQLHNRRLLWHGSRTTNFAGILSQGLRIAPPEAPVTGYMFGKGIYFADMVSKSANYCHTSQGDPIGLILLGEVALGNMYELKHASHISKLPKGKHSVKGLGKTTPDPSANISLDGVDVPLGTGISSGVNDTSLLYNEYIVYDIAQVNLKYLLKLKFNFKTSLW

Row | SMILES | CC50 [2] | CC50 [3] | microsomal CLint [4] | microsomal CLint [5] | clearance [6] | EC90 [12] | pIC50 [15] | EC50 [16] | microsomal CLint [18] | other results
1 | NC(=O)c1cccc2cn(-c3ccc([C@@H]4CCCNC4)cc3)nc12 [NIRAPARIB] | 33 nM | 860 nM | 16 µL/min/mg | 4 µL/min/mg | 28 mL/min/kg | 45 nM |  |  |  | CC50 [1]: > 5000 nM; bioavailability [7]: 65%; CL [8]: 0.3 µL/min/mg; CC50 [9]: > 5000 nM; inhibition [10]: Active; inhibition [11]: Active; CC50 [13]: 18 nM; CC50 [14]: 90 nM
2 | NC(=O)c1cccc2cn(-c3ccc4c(c3)CCNC4)nc12 | 270 nM | 5400 nM | 36 µL/min/mg | 3 µL/min/mg |  | 140 nM | 8.85 | 13 nM |  | bioavailability [7]: 22%; Selectivity Index [17]: 20; CL [8]: 0.7 µL/min/mg
3 | NC(=O)c1cccc2cn(-c3ccc(C4CCCN4)cc3)nc12 (stereo not given) | 190 nM | 10000 nM | 22 µL/min/mg | 4 µL/min/mg |  | 430 nM | 8.51 | 31 nM | 2.5 µL/min/mg | 
4 | NC(=O)c1cccc2cn(Cc3ccccc3)nc12 |  |  |  |  |  | > 5000 nM | 6.89 | > 5000 nM |  | 
5 | CCNCc1ccc(-n2cc3cccc(C(N)=O)c3n2)cc1 | 1600 nM | 7400 nM |  |  |  | 2100 nM | 8.37 | 150 nM |  | 
6 | NC(=O)c1cccc2cn(-c3ccc(CNCCF)cc3)nc12 |  |  |  |  |  |  | 8.68 | > 5000 nM |  | 
7 | NC(=O)c1cccc2cn(-c3ccc4c(c3)CNCC4)nc12 | 130 nM | 2200 nM | 52 µL/min/mg | 4 µL/min/mg | 87 mL/min/kg | 310 nM | 8.66 | 46 nM | 0.7 µL/min/mg | Selectivity Index [17]: 16
8 | NC(=O)c1cccc2cn(-c3ccc(CN4CCCCC4)cc3)nc12 | 880 nM | 5800 nM | 29 µL/min/mg | 3 µL/min/mg | 107 mL/min/kg | 970 nM | 8.72 | 180 nM | 3.8 µL/min/mg | Selectivity Index [17]: 5
9 | NC(=O)c1cccc2cn(-c3ccccc3)nc12 |  |  | 123 µL/min/mg | 138 µL/min/mg | 30 mL/min/kg | 6200 nM | 7.62 | 3700 nM |  | bioavailability [7]: 41%; Vd [19]: 1.8 L/kg; half-life [20]: 5.1 h
10 | NC(=O)c1cccc2cn(-c3ccc(CN4CCOCC4)cc3)nc12 | 5300 nM | > 20000 nM |  |  |  | 6200 nM | 7.77 | 1200 nM |  | 
11 | CNCCc1ccc(-n2cc3cccc(C(N)=O)c3n2)cc1 | 19000 nM | > 20000 nM |  |  |  |  | 6.70 |  |  | 
12 | CN(C)Cc1ccc(-n2cc3cccc(C(N)=O)c3n2)cc1 | 520 nM | 5600 nM | 177 µL/min/mg | 1 µL/min/mg | 450 mL/min/kg | 630 nM | 8.43 | 110 nM |  | solubility [21]: > 3000 µg/mL; Selectivity Index [17]: 10; CL [8]: 8.7 µL/min/mg
13 | NC(=O)c1cccc2cn(-c3ccccc3Cl)nc12 |  |  |  |  |  |  | 7.00 |  |  | 
14 | NC(=O)c1cccc2cn(-c3ccc(CN4CCCC4)cc3)nc12 | 1200 nM | 8100 nM |  |  |  | 450 nM | 8.32 | 94 nM |  | Selectivity Index [17]: 5
15 | CC(C)NCc1ccc(-n2cc3cccc(C(N)=O)c3n2)cc1 | 2000 nM | 10000 nM | 18 µL/min/mg | 1 µL/min/mg | 131 mL/min/kg | 2000 nM | 8.17 | 700 nM | 0.8 µL/min/mg | 
16 | NC(=O)c1cccc2cn(-c3ccc(C4CCCNC4)cc3)nc12 (stereo not given) | 72 nM | 2000 nM | 11 µL/min/mg | 1 µL/min/mg | 47 mL/min/kg | 220 nM |  |  |  | bioavailability [7]: 74%; CL [8]: 0.3 µL/min/mg
17 | NC(=O)c1cccc2cn(-c3ccc([C@H]4CCCNC4)cc3)nc12 | 470 nM | 5700 nM | 7 µL/min/mg | 3 µL/min/mg | 24 mL/min/kg | 280 nM |  |  | < 0.1 µL/min/mg | bioavailability [7]: 47%
18 | NC(=O)c1cccc2cn(-c3ccc(Cl)cc3)nc12 |  |  |  |  |  | 6700 nM | 7.62 | 720 nM |  | 
19 | CNCc1ccc(-n2cc3cccc(C(N)=O)c3n2)cc1 | 460 nM | 5400 nM | 28 µL/min/mg | 3 µL/min/mg | 220 mL/min/kg | 740 nM | 8.42 | 68 nM | 6 µL/min/mg | microsomal CLint [22]: 22 µL/min/mg; bioavailability [7]: 23%; Selectivity Index [17]: 10; Drug uptake [23]: 80 %ID; Drug uptake [24]: 50 %ID; Stability [25]: Stable; microsomal CLint [26]: 22 µL/min/mg; microsomal CLint [27]: 28 µL/min/mg; microsomal CLint [28]: 5 µL/min/mg
20 | CNC(C)(C)c1ccc(-n2cc3cccc(C(N)=O)c3n2)cc1 | 920 nM | 5500 nM | 11 µL/min/mg | < 1 µL/min/mg |  | 900 nM | 7.80 | 110 nM |  | CL [8]: 0.4 µL/min/mg
21 | CNC(C)c1ccc(-n2cc3cccc(C(N)=O)c3n2)cc1 (stereo not given) | 3100 nM | 14000 nM | 9 µL/min/mg | 1 µL/min/mg | 58 mL/min/kg | 680 nM | 8.43 | 58 nM | 2.2 µL/min/mg | 
22 | NC(=O)c1cccn2nc(-c3ccccc3)nc12 |  |  |  |  |  |  | 6.57 |  |  | 
23 | CN1CCN(Cc2ccc(-n3cc4cccc(C(N)=O)c4n3)cc2)CC1 | 2700 nM | 7900 nM | 34 µL/min/mg | 2 µL/min/mg | 8 mL/min/kg | 2700 nM | 7.51 | 1100 nM | < 0.1 µL/min/mg | bioavailability [7]: 11%; Selectivity Index [17]: 3
24 | NC(=O)c1cccc2nn(-c3ccccc3)nc12 |  |  |  |  |  |  | 7.15 |  |  | 
25 | NC(=O)c1cccc2cn(-c3ccc(CNCC(F)F)cc3)nc12 | > 6600 nM | > 6600 nM |  |  |  | 7600 nM | 7.85 | 3400 nM |  | 
26 | NC(=O)c1cccc2cn(-c3cccc(Cl)c3)nc12 |  |  |  |  |  | 5600 nM | 7.85 | 450 nM |  | 
27 | NC(=O)c1cccc2cc(-c3ccccc3)nn12 |  |  |  |  |  |  | 7.26 |  |  | 
28 | NC(=O)c1cccc2cn(-c3ccc(C4CCNCC4)cc3)nc12 | 410 nM | 4500 nM | 15 µL/min/mg | 5 µL/min/mg |  |  | 8.05 |  | < 0.1 µL/min/mg | 
29 | CN(C)CCN(C)Cc1ccc(-n2cc3cccc(C(N)=O)c3n2)cc1 | 3900 nM | > 20000 nM |  |  |  | 4400 nM | 8.23 | 170 nM |  | 
30 | CNCc1cccc(-n2cc3cccc(C(N)=O)c3n2)c1 | 10300 nM | > 20000 nM | 32 µL/min/mg | 5 µL/min/mg | 69 mL/min/kg |  | 8.28 |  | 5.4 µL/min/mg | 
